Results: ChEMBL document CHEMBL2401692, “Synthesis, structure-activity relationships, and in vivo efficacy of the novel potent and selective anaplastic lymphoma kinase (ALK) inhibitor 5-chloro-N2-(2-isopropoxy-5-methyl-4-(piperidin-4-yl)phenyl)-N4-(2-(isopropylsulfonyl)phenyl)pyrimidine-2,4-diamine (LDK378) currently in phase 1 and phase …” (J Med Chem, 2013)
In brackets after ≈: the same amount, converted by molar mass.

What was measured:
[1] = Toxicity in po dosed Rowett nude rat xenografted with human KARPAS299 cells; type: organism-based, KARPAS-299; details: in vivo
[2] = system: NCI-H2228; assay: Antitumor activity against human NCI-H2228 cells xenografted in Rowett nude rat assessed as complete tumor regression at 25 mg/kg, po for 14 days measured 7 to 72 hrs post dosing relative to control; type: functional
[3] = system: NCI-H2228; assay: Antitumor activity against human NCI-H2228 cells xenografted in Rowett nude rat assessed as tumor growth inhibition factor at 10 mg/kg, po for 14 days measured 7 to 72 hrs post dosing relative to control; type: functional
[4] = system: NCI-H2228; assay: Antitumor activity against human NCI-H2228 cells xenografted in Rowett nude rat assessed as tumor growth inhibition factor at 5 mg/kg, po for 14 days measured 7 to 72 hrs post dosing relative to control; type: functional
[5] = system: KARPAS-299; assay: Antitumor activity against human KARPAS299 cells xenografted in Rowett nude rat assessed as tumor regression at 50 mg/kg, po for 14 days measured 7 to 72 hrs post dosing relative to control; type: functional
[6] = Tmax in cynomolgus monkey at 60 mg/kg, po; type: ADME, organism-based, Macaca fascicularis; parameters: dose 60 mg/kg, route oral; details: in vivo
[7] = AUC in cynomolgus monkey at 60 mg/kg, po; type: ADME, organism-based, Macaca fascicularis; parameters: dose 60 mg/kg, route oral; details: plasma
[8] = Cmax in cynomolgus monkey at 60 mg/kg, po; type: ADME, organism-based, Macaca fascicularis; parameters: dose 60 mg/kg, route oral; details: in vivo
[9] = Oral bioavailability in Beagle dog at 20 mg/kg; type: ADME, organism-based, Canis lupus familiaris; details: in vivo
[10] = Tmax in Beagle dog at 20 mg/kg, po; type: ADME, organism-based, Canis lupus familiaris; parameters: dose 20 mg/kg, route oral; details: in vivo
[11] = Cmax in Beagle dog at 20 mg/kg, po; type: ADME, organism-based, Canis lupus familiaris; parameters: dose 20 mg/kg, route oral; details: in vivo
[12] = AUC in Beagle dog at 20 mg/kg, po; type: ADME, organism-based, Canis lupus familiaris; parameters: dose 20 mg/kg, route oral; details: plasma
[13] = Volume of distribution at steady state in Beagle dog at 5 mg/kg, iv; type: ADME, organism-based, Canis lupus familiaris; parameters: dose 5 mg/kg, route intravenous; details: in vivo, read-out: Vdss
[14] = Tmax in Sprague-Dawley rat at 10 mg/kg, po; type: ADME, organism-based; parameters: dose 10 mg/kg, route oral; details: in vivo
[15] = Half life in Sprague-Dawley rat at 3 mg/kg, iv; type: ADME, organism-based; parameters: dose 3 mg/kg, route intravenous; details: in vivo
[16] = Plasma clearance in Sprague-Dawley rat at 3 mg/kg, iv; type: ADME, organism-based; parameters: dose 3 mg/kg, route intravenous
[17] = AUC in Sprague-Dawley rat at 3 mg/kg, iv; type: ADME, organism-based; parameters: dose 3 mg/kg, route intravenous; details: plasma
[18] = Tmax in BALB/c mouse at 20 mg/kg, po; type: ADME, organism-based; parameters: dose 20 mg/kg, route oral; details: in vivo
[19] = Cmax in BALB/c mouse at 20 mg/kg, po; type: ADME, organism-based; parameters: dose 20 mg/kg, route oral; details: in vivo
[20] = AUC in BALB/c mouse at 20 mg/kg, po; type: ADME, organism-based; parameters: dose 20 mg/kg, route oral; details: plasma
[21] = Half life in BALB/c mouse at 5 mg/kg, iv; type: ADME, organism-based; parameters: dose 5 mg/kg, route intravenous; details: in vivo
[22] = Cmax in BALB/c mouse at 5 mg/kg, iv; type: ADME, organism-based; parameters: dose 5 mg/kg, route intravenous; details: in vivo
[23] = Plasma clearance in BALB/c mouse at 5 mg/kg, iv; type: ADME, organism-based; parameters: dose 5 mg/kg, route intravenous
[24] = molecular target: BDNF/NT-3 growth factors receptor (Homo sapiens, UniProt Q16620); assay: Inhibition of TEL-fused TRKB (unknown origin) by cell-based assay
[25] = molecular target: T1, Tyrosine-protein kinase Lck (Homo sapiens, UniProt P06239); assay: Inhibition of TEL-fused LCK (unknown origin) by cell-based assay
[26] = molecular target: Tyrosine-protein kinase Lyn (Homo sapiens, UniProt P07948); assay: Inhibition of TEL-fused LYN (unknown origin) by cell-based assay
[27] = molecular target: T2, Mast/stem cell growth factor receptor Kit (Homo sapiens, UniProt P10721); assay: Inhibition of TEL-fused cKIT (unknown origin) by cell-based assay
[28] = molecular target: T3, Fibroblast growth factor receptor 3 (Homo sapiens, UniProt P22607); assay: Inhibition of TEL-fused FGFR3 (unknown origin) by cell-based assay
[29] = molecular target: Tyrosine-protein kinase Fgr (Homo sapiens, UniProt P09769); assay: Inhibition of TEL-fused FGR (unknown origin) by cell-based assay
[30] = molecular target: Tyrosine-protein kinase ZAP-70 (Homo sapiens, UniProt P43403); assay: Inhibition of ZAP70 (unknown origin) after 60 mins
[31] = molecular target: Rho-associated protein kinase 2 (Homo sapiens, UniProt O75116); assay: Inhibition of ROCK2 (unknown origin) after 60 mins
[32] = molecular target: Platelet-derived growth factor receptor alpha (Homo sapiens, UniProt P16234); assay: Inhibition of PDGFRalpha (unknown origin) after 60 mins
[33] = molecular target: T1, Tyrosine-protein kinase Lck; assay: Inhibition of LCK (unknown origin) after 60 mins
[34] = molecular target: T2, Mast/stem cell growth factor receptor Kit; assay: Inhibition of cKIT (unknown origin) after 60 mins
[35] = molecular target: Tyrosine-protein kinase JAK2 (Homo sapiens, UniProt O60674); assay: Inhibition of JAK2 (unknown origin) after 60 mins
[36] = molecular target: Tyrosine-protein kinase JAK1 (Homo sapiens, UniProt P23458); assay: Inhibition of JAK1 (unknown origin) after 60 mins
[37] = molecular target: Receptor-type tyrosine-protein kinase FLT3 (Homo sapiens, UniProt P36888); assay: Inhibition of FLT3 (unknown origin) after 60 mins
[38] = molecular target: T3, Fibroblast growth factor receptor 3; assay: Inhibition of FGFR3 (unknown origin) after 60 mins
[39] = molecular target: Cyclin-dependent kinase 4 (Homo sapiens, UniProt P11802); assay: Inhibition of CDK4 (unknown origin) after 60 mins
[40] = molecular target: Cyclin-dependent kinase 2 (Homo sapiens, UniProt P24941); assay: Inhibition of CDK2 (unknown origin) after 60 mins
[41] = Plasma clearance in cynomolgus monkey at 5 mg/kg, iv; type: ADME, organism-based, Macaca fascicularis; parameters: dose 5 mg/kg, route intravenous
[42] = Solubility of the compound […] at pH 6.8; type: physicochemical
[43] = Intrinsic clearance in rat liver microsomes; type: ADME, Microsome; details: read-out: CLH
[44] = in vivo; details: Sprague-Dawley, rat, po, 10 mg/kg
[45] = in vivo; details: Sprague-Dawley, rat, iv, 3 mg/kg

T1 sequence (P06239 whole entry, the tested form may be a part): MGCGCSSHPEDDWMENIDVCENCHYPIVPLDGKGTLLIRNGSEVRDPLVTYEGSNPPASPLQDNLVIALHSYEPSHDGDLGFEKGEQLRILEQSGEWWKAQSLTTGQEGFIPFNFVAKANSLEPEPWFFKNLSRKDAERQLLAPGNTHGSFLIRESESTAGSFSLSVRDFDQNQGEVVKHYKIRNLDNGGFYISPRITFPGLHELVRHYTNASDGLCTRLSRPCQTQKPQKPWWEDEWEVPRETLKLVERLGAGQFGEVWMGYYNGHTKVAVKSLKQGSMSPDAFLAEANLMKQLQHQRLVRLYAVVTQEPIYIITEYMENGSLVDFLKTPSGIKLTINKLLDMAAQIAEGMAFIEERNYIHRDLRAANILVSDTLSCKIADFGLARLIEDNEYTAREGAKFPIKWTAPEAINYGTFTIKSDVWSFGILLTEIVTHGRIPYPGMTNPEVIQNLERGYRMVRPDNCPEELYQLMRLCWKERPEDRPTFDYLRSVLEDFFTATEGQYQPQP
T2 sequence (P10721 whole entry, the tested form may be a part): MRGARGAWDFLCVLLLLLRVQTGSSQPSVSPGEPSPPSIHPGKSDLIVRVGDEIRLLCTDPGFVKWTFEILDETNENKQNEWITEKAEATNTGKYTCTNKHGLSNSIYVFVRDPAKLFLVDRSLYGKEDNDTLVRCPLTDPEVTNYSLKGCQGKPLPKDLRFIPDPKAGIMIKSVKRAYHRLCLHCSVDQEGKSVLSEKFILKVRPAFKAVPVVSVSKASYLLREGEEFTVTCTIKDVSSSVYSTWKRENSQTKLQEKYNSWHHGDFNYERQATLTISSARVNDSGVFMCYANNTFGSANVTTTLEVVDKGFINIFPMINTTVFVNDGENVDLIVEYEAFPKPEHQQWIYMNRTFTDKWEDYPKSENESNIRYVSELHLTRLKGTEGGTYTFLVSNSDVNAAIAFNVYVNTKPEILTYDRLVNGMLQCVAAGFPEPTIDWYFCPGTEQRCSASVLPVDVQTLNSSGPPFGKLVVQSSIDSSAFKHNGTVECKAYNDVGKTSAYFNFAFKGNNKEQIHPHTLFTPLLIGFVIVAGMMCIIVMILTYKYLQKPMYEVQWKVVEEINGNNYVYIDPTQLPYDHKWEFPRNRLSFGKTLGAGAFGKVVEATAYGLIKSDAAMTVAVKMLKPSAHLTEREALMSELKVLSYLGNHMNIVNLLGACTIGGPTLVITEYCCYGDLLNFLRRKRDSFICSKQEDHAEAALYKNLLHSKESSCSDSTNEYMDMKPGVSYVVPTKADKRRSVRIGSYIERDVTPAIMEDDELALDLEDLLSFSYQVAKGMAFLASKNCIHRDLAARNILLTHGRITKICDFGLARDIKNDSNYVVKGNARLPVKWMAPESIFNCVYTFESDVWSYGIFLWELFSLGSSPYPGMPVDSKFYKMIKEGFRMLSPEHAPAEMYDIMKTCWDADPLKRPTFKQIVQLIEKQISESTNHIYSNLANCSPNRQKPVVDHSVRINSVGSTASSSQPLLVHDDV
Tyrosine-protein kinase Fgr, sequence (P09769 whole entry, the tested form may be a part): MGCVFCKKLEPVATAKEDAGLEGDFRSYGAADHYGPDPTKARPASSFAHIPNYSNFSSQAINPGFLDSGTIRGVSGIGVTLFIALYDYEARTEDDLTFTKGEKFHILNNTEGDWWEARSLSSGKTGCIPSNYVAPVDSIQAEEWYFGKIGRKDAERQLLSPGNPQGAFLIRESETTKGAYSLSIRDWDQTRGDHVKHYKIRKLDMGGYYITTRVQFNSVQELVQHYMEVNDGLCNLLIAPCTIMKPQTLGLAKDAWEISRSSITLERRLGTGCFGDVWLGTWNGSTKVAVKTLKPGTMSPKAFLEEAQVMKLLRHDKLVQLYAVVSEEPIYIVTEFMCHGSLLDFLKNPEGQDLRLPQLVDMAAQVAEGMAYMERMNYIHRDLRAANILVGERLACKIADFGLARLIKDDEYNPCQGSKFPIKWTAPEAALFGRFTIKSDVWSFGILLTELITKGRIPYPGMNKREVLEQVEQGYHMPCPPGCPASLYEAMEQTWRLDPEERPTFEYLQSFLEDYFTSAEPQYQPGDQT
Tyrosine-protein kinase Lyn, sequence (P07948 whole entry, the tested form may be a part): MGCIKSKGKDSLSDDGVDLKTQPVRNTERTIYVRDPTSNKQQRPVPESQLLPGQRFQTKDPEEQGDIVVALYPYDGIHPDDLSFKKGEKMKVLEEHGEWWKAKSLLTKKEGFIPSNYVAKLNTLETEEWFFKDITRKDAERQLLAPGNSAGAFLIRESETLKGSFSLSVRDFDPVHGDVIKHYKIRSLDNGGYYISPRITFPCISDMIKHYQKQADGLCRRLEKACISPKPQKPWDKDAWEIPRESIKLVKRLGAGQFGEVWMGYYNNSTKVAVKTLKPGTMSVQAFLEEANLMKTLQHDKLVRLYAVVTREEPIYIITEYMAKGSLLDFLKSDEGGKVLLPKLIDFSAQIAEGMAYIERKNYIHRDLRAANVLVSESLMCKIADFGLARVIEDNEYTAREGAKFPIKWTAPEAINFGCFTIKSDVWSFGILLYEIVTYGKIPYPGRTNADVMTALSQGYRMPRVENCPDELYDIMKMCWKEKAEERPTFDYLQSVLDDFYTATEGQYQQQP
Tyrosine-protein kinase JAK1, sequence (P23458 whole entry): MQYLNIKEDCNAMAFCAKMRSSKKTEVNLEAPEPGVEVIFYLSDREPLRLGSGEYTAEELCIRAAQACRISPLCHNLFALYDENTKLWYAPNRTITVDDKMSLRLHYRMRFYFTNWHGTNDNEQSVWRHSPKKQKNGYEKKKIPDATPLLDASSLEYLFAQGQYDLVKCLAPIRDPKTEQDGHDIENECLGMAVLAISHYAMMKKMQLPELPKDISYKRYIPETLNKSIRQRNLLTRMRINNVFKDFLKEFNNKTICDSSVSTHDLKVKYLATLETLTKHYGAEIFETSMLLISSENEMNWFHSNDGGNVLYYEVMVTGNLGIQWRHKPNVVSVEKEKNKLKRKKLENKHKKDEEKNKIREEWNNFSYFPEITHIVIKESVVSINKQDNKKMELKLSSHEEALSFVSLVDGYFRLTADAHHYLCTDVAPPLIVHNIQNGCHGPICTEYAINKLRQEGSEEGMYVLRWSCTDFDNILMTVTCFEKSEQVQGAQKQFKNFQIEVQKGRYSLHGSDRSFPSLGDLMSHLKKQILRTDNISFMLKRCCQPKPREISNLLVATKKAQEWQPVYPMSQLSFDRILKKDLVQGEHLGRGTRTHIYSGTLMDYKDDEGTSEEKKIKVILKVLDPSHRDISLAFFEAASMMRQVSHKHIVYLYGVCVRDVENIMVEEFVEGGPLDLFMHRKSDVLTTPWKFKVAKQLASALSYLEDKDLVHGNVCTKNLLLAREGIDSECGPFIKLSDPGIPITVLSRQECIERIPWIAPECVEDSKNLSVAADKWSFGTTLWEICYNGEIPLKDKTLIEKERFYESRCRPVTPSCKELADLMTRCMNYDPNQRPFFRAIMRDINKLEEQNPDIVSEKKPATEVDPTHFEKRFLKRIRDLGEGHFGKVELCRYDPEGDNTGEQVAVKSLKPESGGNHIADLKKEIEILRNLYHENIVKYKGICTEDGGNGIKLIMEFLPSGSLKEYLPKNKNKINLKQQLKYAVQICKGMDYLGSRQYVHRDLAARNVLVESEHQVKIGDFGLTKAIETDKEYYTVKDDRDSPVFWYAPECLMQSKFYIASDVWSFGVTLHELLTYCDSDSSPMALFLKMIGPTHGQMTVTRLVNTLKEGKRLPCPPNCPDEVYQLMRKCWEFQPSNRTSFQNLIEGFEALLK
Rho-associated protein kinase 2, sequence (O75116 whole entry): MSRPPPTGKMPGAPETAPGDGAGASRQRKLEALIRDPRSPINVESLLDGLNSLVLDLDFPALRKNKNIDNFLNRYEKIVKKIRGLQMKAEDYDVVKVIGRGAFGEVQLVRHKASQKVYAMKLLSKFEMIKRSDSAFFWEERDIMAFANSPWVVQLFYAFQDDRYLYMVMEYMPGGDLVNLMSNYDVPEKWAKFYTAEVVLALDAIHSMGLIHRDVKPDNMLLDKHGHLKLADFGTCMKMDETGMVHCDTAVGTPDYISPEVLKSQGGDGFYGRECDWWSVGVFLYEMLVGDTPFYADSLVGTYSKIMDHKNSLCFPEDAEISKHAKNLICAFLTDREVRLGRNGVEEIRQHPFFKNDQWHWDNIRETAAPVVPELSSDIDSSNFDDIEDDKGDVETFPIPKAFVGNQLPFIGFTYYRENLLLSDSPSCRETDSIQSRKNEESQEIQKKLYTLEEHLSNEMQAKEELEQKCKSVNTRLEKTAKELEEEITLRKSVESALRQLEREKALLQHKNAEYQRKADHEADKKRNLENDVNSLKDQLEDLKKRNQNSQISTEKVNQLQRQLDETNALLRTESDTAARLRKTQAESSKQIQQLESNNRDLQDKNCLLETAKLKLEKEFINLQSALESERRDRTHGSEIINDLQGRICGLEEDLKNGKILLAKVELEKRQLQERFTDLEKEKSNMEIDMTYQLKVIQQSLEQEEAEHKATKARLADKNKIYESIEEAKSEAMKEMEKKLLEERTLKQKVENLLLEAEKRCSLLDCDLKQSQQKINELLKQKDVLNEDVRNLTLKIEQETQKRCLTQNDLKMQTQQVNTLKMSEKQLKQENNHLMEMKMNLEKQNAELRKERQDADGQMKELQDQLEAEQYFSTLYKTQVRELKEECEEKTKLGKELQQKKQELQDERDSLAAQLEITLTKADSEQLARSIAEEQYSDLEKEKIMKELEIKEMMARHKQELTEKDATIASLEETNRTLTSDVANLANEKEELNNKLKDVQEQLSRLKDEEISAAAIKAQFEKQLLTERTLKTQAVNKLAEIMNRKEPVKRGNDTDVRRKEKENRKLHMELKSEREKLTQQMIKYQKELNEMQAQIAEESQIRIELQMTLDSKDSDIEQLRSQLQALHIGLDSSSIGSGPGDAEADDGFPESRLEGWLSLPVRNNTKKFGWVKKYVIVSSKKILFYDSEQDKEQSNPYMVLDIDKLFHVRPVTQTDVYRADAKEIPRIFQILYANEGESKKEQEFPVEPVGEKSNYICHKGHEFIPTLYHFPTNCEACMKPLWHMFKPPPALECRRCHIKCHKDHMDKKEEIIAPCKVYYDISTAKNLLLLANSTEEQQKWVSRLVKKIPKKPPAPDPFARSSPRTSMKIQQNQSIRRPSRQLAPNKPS

## Cc1cc(Nc2ncc(Cl)c(Nc3ccccc3S(=O)(=O)C(C)C)n2)c(OC(C)C)cc1C1CCNCC1 [CERITINIB]
[1]
  MTD: 6.25 mg/kg
[2]
  T/C: -100%
[3]
  T/C: 2%
[4]
  T/C: 67%
[5]
  T/C: -66%
[6]
  Tmax: 13 h
[7]
  AUC: 76.3 µM·h
[8]
  Cmax: 1700 nM
[9]
  bioavailability: 119%
[10]
  Tmax: 8 h
[11]
  Cmax: 1900 nM
[12]
  AUC: 67.9 µM·h
[13]
  Vd: 13.5 L/kg
[14]
  Tmax: 7 h
[15]
  half-life: 9.1 h
[16]
  clearance: 36.8 mL/min/kg
[17]
  AUC: 2.78 µM·h
[18]
  Tmax: 7 h
[19]
  Cmax: 696 nM
[20]
  AUC: 12.3 µM·h
[21]
  half-life: 6.2 h
[22]
  Cmax: 1760 nM
[23]
  clearance: 26.6 mL/min/kg
[24]
  IC50: 1830 nM
[25]
  IC50: 672 nM
[26]
  IC50: 2310 nM
[27]
  IC50: 2860 nM
[28]
  IC50: > 10000 nM
[29]
  IC50: 1950 nM
[30]
  IC50: 9700 nM
[31]
  IC50: 1270 nM
[32]
  IC50: 1140 nM
[33]
  IC50: 560 nM
[34]
  IC50: 1280 nM
[35]
  IC50: 610 nM
[36]
  IC50: 3730 nM
[37]
  IC50: 60 nM
[38]
  IC50: 430 nM
[39]
  IC50: 4720 nM
[40]
  IC50: 3970 nM
[41]
  clearance: 12.8 mL/min/kg
[42]
  solubility: 24 µM (≈ 13.4 µg/mL)
[43]
  microsomal CLint: 10 µL/min/mg
[44]
  Cmax: 259 nM
[45]
  Cmax: 770 nM
